Results on eight compounds are retold here after patent US11685719B2, “Pyridinone MK2 inhibitors and uses thereof” (Xinthera, Inc., priority 2021, dated 2023).

One assay addresses p38a/MK2 (Homo sapiens (Human), UniProt P49137+Q16539). The assay can be described thus: biochemical. Conditions: 10-point 1:3 dilution, top dose 1 μM; 10 μM ATP, 2 h incubation; read-out: p38a/MK2 (1 μM) Enzyme pIC50 (converted). As for the experimental part: (§1) Expression vectors of the recombinant MK2 and PRAK kinases were constructed by cloning of the codon optimized gene sequences of MK2 (Uniprot ID P49137, amino acid fragment F46-H400), or PRAK (Uniprot ID Q81W41, amino acid fragment M1-Q471) into pGEX-4T1 (GE) for over expression of these kinases with N-terminal GST-tag. Protein expression was carried out in E. coli BL21 by growing the hosts in TB medium, induction of protein expression with 0.5 mM IPTG at approximate 0.8 OD600, and incubation of the cultures at 18° C. for 14-20 hours afterwards. The harvested cells were resuspended in […] of Lysis buffer (50 mM Tris-HCl, pH 8.0, 500 mM NaCl, 1 mM DTT, 5% glycerol, and 1 mM PMSF) per gram of wet cell mass and homogenized at 4° C. in a microfluidizer (ATS, Suzhou, China) at 14,000 psi pressure, 3 passes. The cell lysates were clarified by centrifugation and the supernatants containing the GST-fusion proteins were purified by affinity chromatography using GSH-Sepharose (GE) gravity flow columns pre-equilibrated in Buffer A (50 mM Tris-HCl, pH 8.0, 500 mM NaCl, 1 mM DTT, and 5% glycerol). After thorough washing of the columns with Buffer A, the bound GST-proteins were eluted by Buffer B (50 mM Tris, pH 8.0, 500 mM NaCl, 1 mM DTT, 5% glycerol, 10 mM glutathione), followed by size-exclusion purification on Superdex 200 column equilibrated in Buffer A. The purified proteins were concentrated to approximately 1 mg/ml and stored at −80° C.
(§2) This study evaluates the inhibitory potency of invention compound on p38/MK2 pathway vs p38/PRAK pathway. More specially the compound concentration (IC50) was determined that inhibited half of the maximal activation of MK2 or PRAK by p38. MK2 activation study was set up without or with a serial of 10-point 1:3 dilution of invention compound at top dose of 1 or 10 μM, and PRAK activation study was set up without or with a serial of 10-point 1:3 dilution of invention compound at top dose of 300 μM. The MIK2 and PRAK activity were determined by the phosphorylation level of HSP27 peptide conjugated with FITC.

The next assay deals with p38a/PRAK (Homo sapiens (Human), UniProt Q16539). The assay can be described thus: biochemical. Conditions: 10-point 1:3 dilution, top dose 300 μM; 10 μM ATP, 2 h incubation; read-out: p38a/PRAK Enzyme pIC50 (converted). As for the experimental part: as §1, §2
Sequence of p38a/PRAK (Q16539 whole entry): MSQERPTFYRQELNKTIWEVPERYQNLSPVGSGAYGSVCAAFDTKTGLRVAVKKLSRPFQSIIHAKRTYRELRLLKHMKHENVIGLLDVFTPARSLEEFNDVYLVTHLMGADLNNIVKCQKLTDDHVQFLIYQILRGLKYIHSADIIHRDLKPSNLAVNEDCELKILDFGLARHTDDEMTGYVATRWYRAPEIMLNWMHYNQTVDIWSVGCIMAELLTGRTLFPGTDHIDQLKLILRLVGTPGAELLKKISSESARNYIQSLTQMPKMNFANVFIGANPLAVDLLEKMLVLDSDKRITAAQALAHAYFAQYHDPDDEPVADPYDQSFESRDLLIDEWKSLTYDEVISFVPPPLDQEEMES

Sequence of p38a/MK2 (Q16539 whole entry, the tested form may be a part): as the sequence (Q16539 whole entry) above
Sequence of p38a/MK2 (P49137 46-400): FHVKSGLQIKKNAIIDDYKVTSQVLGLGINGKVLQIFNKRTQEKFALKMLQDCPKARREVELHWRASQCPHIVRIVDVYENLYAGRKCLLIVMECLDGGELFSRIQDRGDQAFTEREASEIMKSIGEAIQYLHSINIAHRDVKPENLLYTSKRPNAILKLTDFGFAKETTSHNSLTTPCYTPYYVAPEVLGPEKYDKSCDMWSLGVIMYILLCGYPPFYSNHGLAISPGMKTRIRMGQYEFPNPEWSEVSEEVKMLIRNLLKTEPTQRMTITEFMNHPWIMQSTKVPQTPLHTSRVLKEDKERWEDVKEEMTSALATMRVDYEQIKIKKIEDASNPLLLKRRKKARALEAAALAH

Consider `Cc1cnc(-n2cccc(C(C)C)c2=O)cc1-n1c(C)cc(OCc2ncc(F)cc2F)c(Cl)c1=O` (single isomer, unassigned) [Example 17B, rel-3-chloro-4-[(3,5-difluoropyridin-2-yl)methoxy]-2′-(3-isopropyl-2-oxopyridin-1-yl)-5′,6-dimethyl-[1,4′-bipyridin]-2-one], for which the IC50 is more than 1000 nM at p38a/MK2 and more than 316000 nM at p38a/PRAK.
In the case of `[2H]C([2H])(Oc1cc(C)n(-c2cc(-n3cccc(C(C)(C)O)c3=O)ncc2C)c(=O)c1Cl)c1ncc(F)cc1F` (single isomer, unassigned) [Example 18A, rel-3″-chloro-4″-((3,5-difluoropyridin-2-yl)methoxy-d2)-3-(2-hydroxypropan-2-yl)-5′,6″-dimethyl-2H,2″H-[1,2′:4′,1″-terpyridine]-2,2″-dione], the IC50 was 1.58 nM on p38a/MK2 and 3160 nM on p38a/PRAK.
For `[2H]C([2H])(Oc1cc(C)n(-c2cc(-n3cccc(C(C)(C)O)c3=O)ncc2C)c(=O)c1Cl)c1ncc(F)cc1F` (single isomer, unassigned) [Example 18B, rel-3″-chloro-4″-((3,5-difluoropyridin-2-yl)methoxy-d2)-3-(2-hydroxypropan-2-yl)-5′,6″-dimethyl-2H,2″H-[1,2′:4′,1″-terpyridine]-2,2″-dione] the same measures were more than 100 nM and more than 316000 nM.
In the same order, the values of `[2H]C([2H])(Oc1cc(C)n(-c2cc(-n3ccnc(C(C)(C)O)c3=O)ncc2C)c(=O)c1Cl)c1ncc(F)cc1F` (single isomer, unassigned) [Example 19A, rel-3-chloro-4-((3,5-difluoropyridin-2-yl)methoxy-d2)-2′-(3-(2-hydroxypropan-2-yl)-2-oxopyrazin-1(2H)-yl)-5′,6-dimethyl-2H-[1,4′-bipyridin]-2-one] are 1 nM and 1580 nM.
For `[2H]C([2H])(Oc1cc(C)n(-c2cc(-n3ccnc(C(C)(C)O)c3=O)ncc2C)c(=O)c1Cl)c1ncc(F)cc1F` (single isomer, unassigned) [Example 19B, rel-3-chloro-4-((3,5-difluoropyridin-2-yl)methoxy-d2)-2′-(3-(2-hydroxypropan-2-yl)-2-oxopyrazin-1(2H)-yl)-5′,6-dimethyl-2H-[1,4′-bipyridin]-2-one] the same measures were 794 nM and more than 316000 nM.
Consider `[2H]C([2H])(Oc1cc(C)n(-c2cc(-n3ccnc(C(C)(C)O)c3=O)ncc2C)c(=O)c1Cl)c1ncc(Cl)cc1F` (single isomer, unassigned) [Example 20A, rel-3-chloro-4-((5-chloro-3-fluoropyridin-2-yl)methoxy-d2)-2′-(3-(2-hydroxypropan-2-yl)-2-oxopyrazin-1(2H)-yl)-5′,6-dimethyl-2H-[1,4′-bipyridin]-2-one], for which the figures for the IC50 on p38a/MK2 and on p38a/PRAK were 1 nM and 3160 nM, respectively.
For `[2H]C([2H])(Oc1cc(C)n(-c2cc(-n3ccnc(C(C)(C)O)c3=O)ncc2C)c(=O)c1Cl)c1ncc(Cl)cc1F` (single isomer, unassigned) [Example 20B, rel-3-chloro-4-((5-chloro-3-fluoropyridin-2-yl)methoxy-d2)-2′-(3-(2-hydroxypropan-2-yl)-2-oxopyrazin-1(2H)-yl)-5′,6-dimethyl-2H-[1,4′-bipyridin]-2-one] the same measures were 316 nM and more than 316000 nM.
For `[2H]C([2H])(Oc1cc(C)n(-c2cc(-n3cccc(C(C)(C)O)c3=O)ncc2C)c(=O)c1Cl)c1ncc(Cl)cc1F` (single isomer, unassigned) [Example 21A, rel-3-chloro-4-[(5-chloro-3-fluoropyridin-2-yl)(2H2)methoxy]-2′-[3-(2-hydroxypropan-2-yl)-2-oxopyridin-1-yl]-5′,6-dimethyl-[1,4′-bipyridin]-2-one], the results for the IC50 at p38a/MK2 and on p38a/PRAK were 1.26 nM and 5010 nM, respectively.
